For this test, the system named is ER-alpha MCF7. As to the kind of experiment: ER-alpha MCF7 HCS EC50; stated as measured by in vitro cell proliferation assays of Examples 902 and 903. To be noted: Homo sapiens, MCF7, MCF7 cells; Table 2. Type of test: cell-based. Summed up: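 MCF7 cells seeded 1000-2000 cells/well for 16 h, then treated with nine-point 1:2 DMSO dilution series in quadruplicate at 37 °C, 5% CO2 for 4 days. Viable cells quantified by CellTiter-Glo ATP luminescence; EC50 calculated. Controls: fulvestrant at final 100 nM, DMSO 0.2% v/v.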

As usually defined, the EC50 is the concentration that produces a half-maximal response.

In the case of `C[C@@H]1Cc2c([nH]c3ccccc23)[C@@H](c2ccc(OCCN3CC(CF)C3)cc2)N1C[C@](C)(F)CO` [Example 276, (S)-2-fluoro-3-((1R,3R)-1-(4-(2-(3-(fluoromethyl)azetidin-1-yl)ethoxy)phenyl)-3-methyl-1,3,4,9-tetrahydro-2H-pyrido[3,4-b]indol-2-yl)-2-methylpropan-1-ol], the EC50 worked out at 0.309 nM.
Take `C[C@@H]1Cc2c([nH]c3ccccc23)[C@@H](c2c(F)cc(OC3CN(CCCF)C3)cc2F)N1CC(F)(F)F` [Example 277, (1R,3R)-1-[2,6-difluoro-4-[1-(3-fluoropropyl)azetidin-3-yl]oxy-phenyl]-3-methyl-2-(2,2,2-trifluoroethyl)-1,3,4,9-tetrahydropyrido[3,4-b]indole]: the EC50 is 0.09 nM.
The figure for `C[C@@H]1Cc2c([nH]c3ccccc23)[C@@H](c2c(F)cc(OCCN3CC(CF)C3)cc2F)N1C[C@@](C)(O)CO` [Example 278, (2R)-3-[(1R,3R)-1-[2,6-difluoro-4-[2-[3-(fluoromethyl)azetidin-1-yl]ethoxy]phenyl]-3-methyl-1,3,4,9-tetrahydropyrido[3,4-b]indol-2-yl]-2-methyl-propane-1,2-diol] is 0.31 nM; for `C[C@@H]1Cc2c([nH]c3ccccc23)[C@@H](c2ccc(OCCN3CC(CF)C3)c(F)c2)N1CC(C)(C)F` [Example 279, (1R,3R)-2-(2-fluoro-2-methylpropyl)-1-(3-fluoro-4-(2-(3-(fluoromethyl)azetidin-1-yl)ethoxy)phenyl)-3-methyl-2,3,4,9-tetrahydro-1H-pyrido[3,4-b]indole] it is 0.16 nM; for `C[C@@H]1Cc2c([nH]c3ccccc23)[C@H](c2ccc(OCCN3CC(CF)C3)c(F)c2)N1CC(C)(C)F` [Example 280, (1S,3R)-2-(2-fluoro-2-methylpropyl)-1-(3-fluoro-4-(2-(3-(fluoromethyl)azetidin-1-yl)ethoxy)phenyl)-3-methyl-2,3,4,9-tetrahydro-1H-pyrido[3,4-b]indole] it is 6 nM.
The result for `C[C@@H]1Cc2c([nH]c3ccccc23)[C@@H](c2ccc(OCCN3CC(CF)C3)c(F)c2F)N1CC(C)(C)F` [Example 281, (1R,3R)-1-(2,3-difluoro-4-(2-(3-(fluoromethyl)azetidin-1-yl)ethoxy)phenyl)-2-(2-fluoro-2-methylpropyl)-3-methyl-2,3,4,9-tetrahydro-1H-pyrido[3,4-b]indole] reads 0.183 nM.
The result for `C[C@@H]1Cc2c([nH]c3ccccc23)[C@@H](c2c(F)cc(OC3CN(C[C@@H]4C[C@@H]4F)C3)cc2F)N1CC(C)(C)F` [Example 282, (1R,3R)-1-(2,6-difluoro-4-((1-(((1S,2S)-2-fluorocyclopropyl)methyl)azetidin-3-yl)oxy)phenyl)-2-(2-fluoro-2-methylpropyl)-3-methyl-2,3,4,9-tetrahydro-1H-pyrido[3,4-b]indole] reads 1 nM; that for `CC(=O)CN1[C@H](c2c(F)cc(OC3CN(CCCF)C3)cc2F)c2[nH]c3ccccc3c2C[C@H]1C` [Example 283, 1-[(1R,3R)-1-[2,6-difluoro-4-[1-(3-fluoropropyl)azetidin-3-yl]oxy-phenyl]-3-methyl-1,3,4,9-tetrahydropyrido[3,4-b]indol-2-yl]propan-2-one], 1 nM.
For `C[C@@H]1Cc2c([nH]c3ccccc23)[C@@H](c2c(F)cc(OC3CN(CCCF)C3)cc2F)N1CC(C)(C)CO` [Example 284, 3-[(1R,3R)-1-[2,6-difluoro-4-[1-(3-fluoropropyl)azetidin-3-yl]oxy-phenyl]-3-methyl-1,3,4,9-tetrahydropyrido[3,4-b]indol-2-yl]-2,2-dimethyl-propan-1-ol], the EC50 was 0.382 nM.
The figure for `CCS(=O)(=O)N1[C@H](c2c(F)cc(OC3CN(CCCF)C3)cc2F)c2[nH]c3ccccc3c2C[C@H]1C` [Example 285, (1R,3R)-1-[2,6-difluoro-4-[1-(3-fluoropropyl)azetidin-3-yl]oxy-phenyl]-2-ethylsulfonyl-3-methyl-1,3,4,9-tetrahydropyrido[3,4-b]indole] is 2 nM.
The figure for `C[C@@H]1Cc2c([nH]c3ccccc23)[C@@H](c2c(F)cc(OCCN3CC(CF)C3)cc2F)N1CC(F)(F)CO` [Example 286, 3-[(1R,3R)-1-[2,6-difluoro-4-[2-[3-(fluoromethyl)azetidin-1-yl]ethoxy]phenyl]-3-methyl-1,3,4,9-tetrahydropyrido[3,4-b]indol-2-yl]-2,2-difluoro-propan-1-ol] is 0.0978 nM; for `C[C@@H]1Cc2c([nH]c3ccccc23)[C@@H](c2c(F)cc(OCCN3CC(CF)C3)cc2F)N1CC(C)(C)CO` [Example 287, 3-[(1R,3R)-1-[2,6-difluoro-4-[2-[3-(fluoromethyl)azetidin-1-yl]ethoxy]phenyl]-3-methyl-1,3,4,9-tetrahydropyrido[3,4-b]indol-2-yl]-2,2-dimethyl-propan-1-ol] it is 1 nM.
`C[C@@H]1Cc2c([nH]c3ccccc23)[C@@H](c2c(F)cc(NC3CN(CCCF)C3)cc2F)N1C[C@@](C)(F)CO` [Example 288, (R)-3-((1R,3R)-1-(2,6-difluoro-4-((1-(3-fluoropropyl)azetidin-3-yl)amino)phenyl)-3-methyl-1,3,4,9-tetrahydro-2H-pyrido[3,4-b]indol-2-yl)-2-fluoro-2-methylpropan-1-ol]: the EC50 came out at 0.0528 nM.
As for `C[C@@H]1Cc2c([nH]c3ccccc23)[C@@H](c2c(F)cc(NC3CN(CCCF)C3)cc2F)N1C[C@](C)(F)CO` [Example 289, (S)-3-((1R,3R)-1-(2,6-difluoro-4-((1-(3-fluoropropyl)azetidin-3-yl)amino)phenyl)-3-methyl-1,3,4,9-tetrahydro-2H-pyrido[3,4-b]indol-2-yl)-2-fluoro-2-methylpropan-1-ol], the EC50 came out at 0.199 nM.
For the molecule `C[C@@H]1Cc2c([nH]c3ccccc23)[C@@H](c2ccc(NC3CN(CCCF)C3)cc2F)N1C[C@@](C)(F)CO` [Example 290, (R)-2-fluoro-3-((1R,3R)-1-(2-fluoro-4-((1-(3-fluoropropyl)azetidin-3-yl)amino)phenyl)-3-methyl-1,3,4,9-tetrahydro-2H-pyrido[3,4-b]indol-2-yl)-2-methylpropan-1-ol], the half-maximal effective concentration (EC50) was 0.497 nM.
Regarding `C[C@@H]1Cc2c([nH]c3ccccc23)[C@@H](c2ccc(NC3CN(CCCF)C3)cc2F)N1C[C@](C)(F)CO` [Example 291, (S)-2-fluoro-3-((1R,3R)-1-(2-fluoro-4-((1-(3-fluoropropyl)azetidin-3-yl)amino)phenyl)-3-methyl-1,3,4,9-tetrahydro-2H-pyrido[3,4-b]indol-2-yl)-2-methylpropan-1-ol], the EC50 was found to be 0.13 nM.
The figure for `C[C@@H]1Cc2c([nH]c3ccccc23)[C@@H](c2ccc(NC3CN(CCCF)C3)cc2)N1C[C@@](C)(F)CO` [Example 292, (R)-2-fluoro-3-((1R,3R)-1-(4-((1-(3-fluoropropyl)azetidin-3-yl)amino)phenyl)-3-methyl-1,3,4,9-tetrahydro-2H-pyrido[3,4-b]indol-2-yl)-2-methylpropan-1-ol] is 2 nM; for `C[C@@H]1Cc2c([nH]c3ccccc23)[C@@H](c2ccc(NC3CN(CCCF)C3)cc2)N1C[C@](C)(F)CO` [Example 293, (S)-2-fluoro-3-((1R,3R)-1-(4-((1-(3-fluoropropyl)azetidin-3-yl)amino)phenyl)-3-methyl-1,3,4,9-tetrahydro-2H-pyrido[3,4-b]indol-2-yl)-2-methylpropan-1-ol] it is 0.15 nM.

The record behind these values is patent US20250114338A1, “TETRAHYDRO-PYRIDO[3,4-b]INDOLE ESTROGEN RECEPTOR MODULATORS AND USES THEREOF” (Genentech, Inc., priority 2014, published 2025).
